{
  "source": "patent US9920010B2",
  "about": "“CXCR7 receptor modulators” (IDORSIA PHARMACEUTICALS LTD, priority 2013, dated 2018)",
  "data": [
    {"molecular_target": "T1, CXCR7 (Homo sapiens, UniProt P25106)", "T1 construct": "host or cells: CHO-K1 (PathHunter CHO-K1 CXCR7 b-arrestin cell line, stably transfected)", "T1 sequence (P25106 whole entry, the tested form may be a part)": "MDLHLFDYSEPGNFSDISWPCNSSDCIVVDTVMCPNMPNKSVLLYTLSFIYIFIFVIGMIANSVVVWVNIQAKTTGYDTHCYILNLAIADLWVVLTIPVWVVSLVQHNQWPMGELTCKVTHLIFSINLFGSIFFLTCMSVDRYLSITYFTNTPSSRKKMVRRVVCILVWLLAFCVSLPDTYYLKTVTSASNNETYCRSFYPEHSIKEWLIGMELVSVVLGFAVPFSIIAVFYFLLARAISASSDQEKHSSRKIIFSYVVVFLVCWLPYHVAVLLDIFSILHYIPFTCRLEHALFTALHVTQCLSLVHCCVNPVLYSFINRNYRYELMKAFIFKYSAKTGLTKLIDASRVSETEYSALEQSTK", "T1 sequence (P32121 whole entry partner, the tested form may be a part)": "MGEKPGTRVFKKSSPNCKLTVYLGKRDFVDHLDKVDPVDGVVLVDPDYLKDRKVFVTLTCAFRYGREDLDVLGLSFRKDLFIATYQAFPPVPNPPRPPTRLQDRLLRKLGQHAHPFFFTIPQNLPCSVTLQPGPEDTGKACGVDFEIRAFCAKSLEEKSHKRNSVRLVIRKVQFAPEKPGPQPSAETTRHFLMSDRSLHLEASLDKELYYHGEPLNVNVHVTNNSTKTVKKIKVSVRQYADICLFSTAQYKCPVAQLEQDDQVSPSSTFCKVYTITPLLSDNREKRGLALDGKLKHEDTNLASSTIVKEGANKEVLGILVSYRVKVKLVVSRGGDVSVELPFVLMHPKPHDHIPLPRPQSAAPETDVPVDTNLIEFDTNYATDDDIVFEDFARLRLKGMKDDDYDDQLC", "test": "PathHunter CHO-K1 CXCR7 b-arrestin recruitment assay (CXCR7 agonistic activity)", "format": "cell-based", "details": "PathHunter CHO-K1 CXCR7 b-arrestin cell line", "procedure,_shortened": "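Stable CHO-K1 line with C-terminally ProLink-tagged CXCR7 and β-arrestin 2–EA fusion; β-arrestin recruitment restores β-gal activity, read by chemiluminescence after 1 h RT detection. Cells seeded 24 h, starved in OPTIMEM 3–4 h, exposed to compounds 90 min at 37 °C in HBSS/HEPES/BSA. Geometric-mean EC50 from repeated measurements.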", "units": {"EC50": "µM"}, "values": [
      {"smiles": "CCC(=O)N1CCc2c(cccc2NCC(=O)N(CCC(C)C)Cc2ccccc2)C1", "note": "[Example 12, N-Benzyl-N-(3-methyl-butyl)-2-(2-propionyl-1,2,3,4-tetrahydro-isoquinolin-5-ylamino)-acetamide]", "EC50": 0.194},
      {"smiles": "CCC(=O)N1CCc2c(cccc2NCC(=O)N(CCCN(C)C)Cc2ccccc2)C1", "note": "[Example 13, N-Benzyl-N-(3-dimethylamino-propyl)-2-(2-propionyl-1,2,3,4-tetrahydro-isoquinolin-5-ylamino)-acetamide]", "EC50": 0.037},
      {"smiles": "CCC(=O)N1CCc2c(cccc2NCC(=O)N(CCN(C)C)Cc2cccc(C)c2)C1", "note": "[Example 14, N-(2-Dimethylamino-ethyl)-N-(3-methyl-benzyl)-2-(2-propionyl-1,2,3,4-tetrahydro-isoquinolin-5-ylamino)-acetamide]", "EC50": 0.053},
      {"smiles": "CCC(=O)N1CCc2c(cccc2NCC(=O)N(CCN(C)C)Cc2ccccc2C)C1", "note": "[Example 15, N-(2-Dimethylamino-ethyl)-N-(2-methyl-benzyl)-2-(2-propionyl-1,2,3,4-tetrahydro-isoquinolin-5-ylamino)-acetamide]", "EC50": 0.015},
      {"smiles": "CCC(=O)N1CCc2c(cccc2NCC(=O)N(CCN(C)C)Cc2ccc(C)cc2)C1", "note": "[Example 16, N-(2-Dimethylamino-ethyl)-N-(4-methyl-benzyl)-2-(2-propionyl-1,2,3,4-tetrahydro-isoquinolin-5-ylamino)-acetamide]", "EC50": 0.063},
      {"smiles": "CCC(=O)N1CCc2c(cccc2NCC(=O)N(CCc2ccccc2)CCN(C)C)C1", "note": "[Example 17, N-(2-Dimethylamino-ethyl)-N-phenethyl-2-(2-propionyl-1,2,3,4-tetrahydro-isoquinolin-5-ylamino)-acetamide]", "EC50": 0.135},
      {"smiles": "CCC(=O)N1CCc2c(cccc2NCC(=O)N(CCN(C)C)Cc2cccc(Cl)c2)C1", "note": "[Example 18, N-(3-Chloro-benzyl)-N-(2-dimethylamino-ethyl)-2-(2-propionyl-1,2,3,4-tetrahydro-isoquinolin-5-ylamino)-acetamide]", "EC50": 0.061},
      {"smiles": "CCC(=O)N1CCc2c(cccc2NCC(=O)N(CCN(C)C)Cc2ccc(Cl)cc2)C1", "note": "[Example 19, N-(4-Chloro-benzyl)-N-(2-dimethylamino-ethyl)-2-(2-propionyl-1,2,3,4-tetrahydro-isoquinolin-5-ylamino)-acetamide]", "EC50": 0.102},
      {"smiles": "CCC(=O)N1CCc2c(cccc2NCC(=O)N(CCN(C)C)Cc2ccccc2Cl)C1", "note": "[Example 20, N-(2-Chloro-benzyl)-N-(2-dimethylamino-ethyl)-2-(2-propionyl-1,2,3,4-tetrahydro-isoquinolin-5-ylamino)-acetamide]", "EC50": 0.011},
      {"smiles": "CCC(=O)N1CCc2c(cccc2NCC(=O)N(CCN(C)C)Cc2cccc(F)c2)C1", "note": "[Example 21, N-(2-Dimethylamino-ethyl)-N-(3-fluoro-benzyl)-2-(2-propionyl-1,2,3,4-tetrahydro-isoquinolin-5-ylamino)-acetamide]", "EC50": 0.039},
      {"smiles": "CCC(=O)N1CCc2c(cccc2NCC(=O)N(CCN(C)C)Cc2ccc(F)cc2)C1", "note": "[Example 22, N-(2-Dimethylamino-ethyl)-N-(4-fluoro-benzyl)-2-(2-propionyl-1,2,3,4-tetrahydro-isoquinolin-5-ylamino)-acetamide]", "EC50": 0.08},
      {"smiles": "CCC(=O)N1CCc2c(cccc2NCC(=O)N(CCN(C)C)Cc2ccccc2F)C1", "note": "[Example 23, N-(2-Dimethylamino-ethyl)-N-(2-fluoro-benzyl)-2-(2-propionyl-1,2,3,4-tetrahydro-isoquinolin-5-ylamino)-acetamide]", "EC50": 0.016},
      {"smiles": "CCC(=O)N1CCc2c(cccc2NCC(=O)N(CCN2CCCC2)Cc2ccccc2)C1", "note": "[Example 24, N-Benzyl-2-(2-propionyl-1,2,3,4-tetrahydro-isoquinolin-5-ylamino)-N-(2-pyrrolidin-1-yl-ethyl)-acetamide]", "EC50": 0.028},
      {"smiles": "CCC(=O)N1CCc2c(cccc2NCC(=O)N(Cc2ccccc2)Cc2ccccn2)C1", "note": "[Example 25, N-Benzyl-2-(2-propionyl-1,2,3,4-tetrahydro-isoquinolin-5-ylamino)-N-pyridin-2-ylmethyl-acetamide]", "EC50": 0.309}
    ]}
  ]
}
